Consider two molecules from patent publication US11866394B2, “Prodrugs of hydroxamate-based GCPII inhibitors” (The Johns Hopkins University, priority 2016, dated 2024).

Data set [1] in a line: Oral plasma pharmacokinetic studies in mice. It counts as in vivo. Particulars: mice (n=3), 10 mg/kg equivalent dose, plasma 30 min post dose. Here is the method:
All pharmacokinetic studies in mice were conducted according to protocols approved by the Animal Care and Use Committee at Johns Hopkins University (Baltimore, MD). Briefly, male CD 1 mice between 25 g and 30 g were obtained from Harlan Laboratories (Indianapolis, Indiana), and maintained on a 12-hour light-dark cycle with ad libitum access to food and water.
Compound 1 and its prodrugs were administered to male mice as a single (p.o.) dose of 10 mg/kg equivalent. Dosing solutions were prepared on the day of the experiment in 50 mM HEPES buffered saline and pH adjusted to 7.4. The mice were sacrificed by pentobarbital injection at 30 minutes post drug administration, and blood collected via cardiac puncture was placed into iced heparin-coated BD microtainers. Blood samples were spun at 2,000 g for 15 minutes, plasma was removed and stored at −80° C. until LC-MS analysis as previously described. (Novakova, et al., 2016) Briefly, chromatographic analysis was performed using an Accela™ ultra high-performance system consisting of an analytical pump, and an autosampler coupled with TSQ Vantage mass spectrometer (Thermo Fisher Scientific Inc., Waltham, MA). […]
Bioanalysis of parent and intact prodrug in plasma and tissues: Prior to extraction, frozen samples were thawed on ice. […] The residue was reconstituted with 50 μL of 30% acetonitrile and analysed by LC/MS/MS. […]

Data set [2] in a line: Subcutaneous plasma and sciatic nerve pharmacokinetic studies in mice. It counts as in vivo. Particulars: 10 mg/kg equivalent s.q., 10-120 min post dose. As for the experimental part:
Bioanalysis of parent and intact prodrug in plasma and tissues: Prior to extraction, frozen samples were thawed on ice. For plasma, 50 μL of the sample was transferred into siliconized microcentrifuge tubes. For sciatic nerves, the samples were weighed in a 1.7 mL tubes and homogenized in 5× the volume of methanol. The calibration curves were prepared using naïve plasma and sciatic nerves in a concentration range of 50-10000 pmol/g or pmol/mL. Sample preparation involved a single liquid extraction by addition of 300 μL of methanol with internal standard (losartan 200 nM in methanol), followed by vortexing for 30 s and then centrifugation at 10,000×g for 10 min. Supernatant (about 250 μL) was transferred and evaporated to dryness at 40° C. under a gentle stream of nitrogen. The residue was reconstituted with 50 μL of 30% acetonitrile and analysed by LC/MS/MS.
Chromatographic analysis was performed using an Accela™ ultra high-performance system consisting of an analytical pump, and an autosampler coupled with TSQ Vantage mass spectrometer (Thermo Fisher Scientific Inc., Waltham, MA). […] The mobile phase used was composed of 0.1% formic acid in acetonitrile and 0.1% formic acid in H2O with gradient elution, starting with 10% (organic) linearly increasing to 99% up to 2.5 min, maintaining at 99% (2.5-3.5 min) and reequlibrating to 10% by 4.5 min. The total run time for each analyte was 4.5 min. The mass transitions (M−H)− used for Compound 50 were 280.077>175.168, 203.156; and for losartan were 420.895>127.040, 179.108.

Data set [3] concerns rat chronic constriction injury (CCI) model of neuropathic pain. In words: Chronic constrictive injury (CCI) model of neuropathic pain, thermal hyperalgesia. Particulars: 1 mg/kg subcutaneous dose (dose equivalent of 50). Format: in vivo.
Data set [4] has the same test system. The description is as above. Format: in vivo. Particulars: oral daily, 3 mg/kg dose equivalent of 1 (50), 4.6 mg/kg/day for 12. The text has this: All experimental protocols were approved by the Institutional Animal Care and Use Committee at Johns Hopkins University (Baltimore, MD) and adhered to all of the applicable institutional and governmental guidelines for the humane treatment of laboratory animals. Male Sprague-Dawley rats (200-250 g; n=10-15 per group) were subjected to peripheral neuropathy injury by constriction of the sciatic nerve performed according to methods described previously. (Novakova, et al., 2016; Bennett, et al., 1988; Attal, et al., 1990) In brief, the common sciatic nerve was exposed and 4 ligatures (4.0 chromic gut) tied loosely around it with 1 mm spacing. Wound clips were used to close wounds and animals were returned to home cages for recovery. Hyperalgesia testing was initiated 10 days post-surgery. Pain sensitivity was assessed by determining withdrawal latencies in response to a constant thermal stimulus directed to the plantar surface of the hind paw using a Basile Plantar apparatus (Ugo Basile, Vaarese, Italy) according to the method described by Hargreaves et al. (Hargreaves, et al., 1988) Apparatus was calibrated so that normal rats respond to the stimulus within 15 sec of application. Withdrawal latency (i.e., the time taken for the rat to withdraw its paw from the heat source) was measured to the nearest 0.1 sec. The “difference in score” was calculated by subtracting the average latency of the paw on the non-ligated versus ligated side. Each animal was tested during two experimental sessions per week, with three days allowed to elapse between test sessions. Test agents, prodrug 12 (3 mg/kg equivalent of 1), or gabapentin (50 mg/kg and 100 mg/kg po) as a positive control were dosed daily throughout the study via oral gavage and one hour before testing on experimental days. Statistical analysis with students t-test was used to determine differences between control and treatment group.

Data set [5] in a line: In vitro metabolic stability in mouse plasma. Particulars: 37° C. It counts as in vitro ADME. Here is the method: (§1) For metabolic stability, plasma (mouse, and human) and liver microsomes (mouse and human) were used. For stability, prodrugs (10 μM) were spiked in each matrix and incubated in an orbital shaker at 37° C. At predetermined times (0, 30 and 60 min), 100 μL aliquots of the mixture in triplicate were removed and the reaction quenched by addition of three times the volume of ice cold acetonitrile spiked with the internal standard (losartan 5 μM). The samples were vortexed for 30 s and centrifuged 12000 g for 10 min. 50 μL supernatant diluted with 50 μL water was transferred to a 250 μL polypropylene vial sealed with a Teflon cap. Prodrug disappearance was monitored over time using a liquid chromatography and tandem mass spectrometry (LC/MS/MS) method as described below.
(§2) For LC/MS/MS, prodrugs were separated with Thermo Scientific Accela UPLC system coupled to Accela open autosampler on an Agilent C18 (100×2.1 mm id) UPLC column. The autosampler was temperature controlled and operating at 10° C. […] The column effluent was monitored using TSQ Vantage triple-quadrupole mass spectrometric detector, equipped with an electrospray probe set in the positive ionization mode. […]
(§3) For quantification of compound remaining, disappearance of prodrugs was measured from ratio of peak areas of analyte to IS. Percentage remaining was calculated in the following manner: […]

A short description of data set [6]: In vitro metabolic stability in human plasma. It counts as in vitro ADME. Particulars: 37° C. As for the experimental part:
as §1, §2, §3

SMILES strings stand for the structures.

Regarding `CC(=O)ONC(=O)CCC(Cc1cccc(C(=O)O)c1)C(=O)O` (stereo not shown) [Compound 34, 3-(5-(Acetoxyamino)-2-carboxy-5-oxopentyl)benzoic acid], the “release / plasma exposure of active compound 50 after oral dosing” value in data set [1] was “best release”.

As to `CC(=O)ONC(=O)CCC(Cc1ccc(C(=O)O)cc1)C(=O)O` (stereo not shown) [Compound 7, 4-(5-(Acetoxyamino)-2-carboxy-5-oxopentyl)benzoic acid], in data set [2] (plasma), the “plasma (systemic) levels of active compound 50 after subcutaneous dosing” value is given as “high systemic levels”. Also, in data set [2] (sciatic nerve), the “sciatic nerve exposure of active compound 50 after subcutaneous dosing” value was “excellent nerve exposure”. Besides, the “reversal of thermal hyperalgesia” value in data set [3] is on record as “efficacious”. The “antinociceptive effect on thermal hyperalgesia, ligated side” value in data set [4] is on record as “efficacious”. Besides, the “metabolic stability in mouse plasma” value in data set [5] was “moderately stable”. In data set [6], the “metabolic stability in human plasma” value is recorded as “moderately stable”.
